Assay results published in patent US7718641B2, “Pyrrolo [3,4-H] isoquinoline compounds and methods for modulating gated ion channels” (Aros Pharma ApS, priority 2005, dated 2010).

Assays:
Type in all cases: in vivo, rat
formalin-induced pain = assay: Formalin test, model of acute tonic pain
Experimental: Male Sprague-Dawley rats are housed together in groups of three animals under standard conditions with unrestricted access to food and water. All experiments are conducted according to the ethical guidelines for investigations of experimental pain in conscious animals (Zimmerman, 1983)
Assessment of formalin-induced flinching behavior in normal, uninjured rats (body weight 150-180 g) was made with the use of an Automated Nociception Analyser (University of California, San Diego, USA). Briefly, this involved placing a small C-shaped metal band (10 mm wide×27 mm long) on the hindpaw of the rat to be tested. The rats (four rats were included in each testing session) were then placed in a cylindrical plexiglass observation chamber (diameter 30.5 cm and height 15 cm) for 20 min for adaptation purposes prior to being administered drug or vehicle according to the experimental paradigm being followed. After adaptation, individual rats were then gently restrained and formalin (5% in saline, 50 μl, s.c.) was injected into the plantar surface of the hindpaw using a 27G needle. Rats were then returned to their separate observation chambers, each of which were in turn situated upon an enclosed detection device consisting of two electromagnetic coils designed to produce an electromagnetic field in which movement of the metal band could be detected. The analogue signal was then digitised and a software algorithm (LabView) applied to enable discrimination of flinching behaviour from other paw movements. A sampling interval of 1 min was used and on the basis of the resulting response patterns 5 phases of nociceptive behaviour were identified and scored: first phase (P1; 0-5 min), interphase (Int; 6-15 min), second phase (P2; […]), phase 2A (P2A; 16-40 min) and phase 2B (P2B; 41-60 min).
Nociceptive behavior was also determined manually every 5 min by measuring the amount of time spent in each of four behavioral categories: 0, treatment of the injected hindpaw is indistinguishable from that of the contralateral paw; 1, the injected paw has little or no weight placed on it; 2, the injected paw is elevated and is not in contact with any surface; 3, the injected paw is licked, bitten, or shaken. A weighted nociceptive score, ranging from 0 to 3 was calculated by multiplying the time spent in each category by the category weight, summing these products, and dividing by the total time for each 5 min block of time. (Coderre et al., Pain 1993; 54: 43). On the basis of the resulting response patterns, […] of nociceptive behavior were identified and scored: first phase (P1; 0-5 min), interphase (Int; 6-15 min), second phase (P2; […]), phase 2A (P2A; 16-40 min) and phase 2B (P2B; 41-60 min). […]

[1] = test system: CFA-induced inflammatory pain; assay: CFA model of chronic inflammatory pain, hindpaw weight bearing (Incapacitance Tester); conditions: 24 h after CFA, 60 min after drug injection, n=7-8
Experimental: Rats (body weight 260-300 g) were given a s.c. injection of CFA (50% in saline, 100 μl, Sigma) into the plantar surface of the hindpaw under brief halothane anaesthesia. After 24 h, they were then tested for hindpaw weight bearing responses, as assessed using an Incapacitance Tester (Linton Instrumentation, UK), (Zhu et al., 2005). The instrument incorporates a dual channel scale that separately measures the weight of the animal distributed to each hindpaw. While normal rats distribute their body weight equally between the two hindpaws (50-50), the discrepancy of weight distribution between an injured and non-injured paw is a natural reflection of the discomfort level in the injured paw (nocifensive behavior). The rats were placed in the plastic chamber designed so that each hindpaw rested on a separate transducer pad. […] For each rat, three readings from each paw were taken and then averaged. Side-to-side weight bearing difference was calculated as the average of the absolute value of the difference between two hindpaws from three trials (right paw reading-left paw reading).
Hindpaw weight bearing responses were measured in male Sprague-Dawley rats for 2-3 days prior to being given a hindpaw injection of CFA. Twenty-four hours later baseline responses were measured and rats were then administered Compound A (5, 10 and 20 mg/kg, i.p.), Compound H (10, 30 and 60 mg/kg) and morphine (3, 6 and 10 mg/kg). Weight bearing responses were then measured at 30, 60 and 120 min after drug or vehicle injection (data shown at 60 min.). […] Data are expressed as mean +/−SEM. *P<0.05, **P<0.01, *** P<0.001 vs baseline; +++: P<0.001 vs vehicle. All groups n=7-8.

[2] = test system: CFA-induced thermal hyperalgesia; assay: CFA model, thermal hyperalgesia (Hargreaves plantar test); conditions: CFA 48 h prior
Experimental: Assessment of thermal hyperalgesia: Baseline and post-treatment withdrawal latencies to a noxious thermal stimulus were measured according to Hargreaves (Hargreaves et al., 1988) using a plantar test analgesia meter (IITC, Woodland Hills, Calif., model # 336). The stimulus intensity was set at 30% of maximum output and the cut-off time was set at 30 seconds. Rats were placed on a glass plate warmed to 28° C. and allowed to habituate to the testing chambers for a minimum of 15 minutes prior to each testing session. The thermal stimulus was applied to the plantar surface of the paw, and the mean latency of three readings on each paw was used as the latency value for each time point. Thermal thresholds were defined as the latency in seconds to the first pain behavior, which includes nocifensive paw withdrawal, flinching, biting and/or licking of the stimulated paw. The mean and standard error of the mean (SEM) were determined for the injured and normal paws for each treatment group.
For comparison, results with morphine (6 mg/kg sc) and indomethacin (30 mg/kg po) are shown. […] Data are expressed as mean±SEM, (n=10). **P<0.01, vs. baseline.

| SMILES | ED50 (formalin-induced pain; Rattus norvegicus, ip, i.p. 30 min before formalin, phase 2 (phase IIa), rat, read-out: ED50, total pain score in the formalin test) | total pain score behavior (flinching, licking, biting) (formalin-induced pain; i.p. 30 min before formalin, phase 1 and 2, n=6-8) | CFA-induced change in hindpaw weight bearing compared with vehicle [1] | reversal of CFA-induced thermal hyperalgesia ([2]; 3 h after i.p. administration, dose-dependent) | ED50 ([2]; Rattus norvegicus, ip, measured 3 h after i.p. administration, n=10, read-out: ED50, reversal of CFA-induced thermal hyperalgesia) | pain intensity as evaluated by the flinching behavior (formalin-induced pain; Automated Nociception Analyser, n=6-8) |
| --- | --- | --- | --- | --- | --- | --- |
| COc1ccc(F)cc1-c1cc2c(c3c1CCN(C)C3)NC(=O)/C2=N/O [Compound A, 5-(5-fluoro-2-methoxyphenyl)-6,7,8,9-tetrahydro-3-(hydroxyimino)-8-methyl-1H-pyrrolo[3,2-h]isoquinoline-2(3H)-one] | ~12 mg/kg | reduce the total pain score behavior | marked dose-dependent attenuation in the CFA-induced change in weight bearing | fully reversing the thermal hyperalgesia | 6.5 mg/kg | – |
| CCN1CCc2c(-c3ccccc3)cc3c(c2C1)NC(=O)/C3=N/O [Compound H, 5-phenyl-6,7,8,9-tetrahydro-3-(hydroxyimino)-8-ethyl-1H-pyrrolo[3,2-h]isoquinoline-2(3H)-one] | – | – | marked dose-dependent attenuation in the CFA-induced change in weight bearing | – | – | dose-dependent reduction of the pain intensity |
